Activity calls are given as the source filed them. No cut-off for these calls is given here.
Tests used:
[1] = tested on: TZM; test: Cytotoxicity in uninfected human TZM-bl assessed as reduction in cell viability incubated for 1 day by Cyto-tox-Glo cytotoxicity assay; format: cell-based; settings: 24 h
[2] = tested on: Human immunodeficiency virus 1; test: Antiviral activity against HIV1 NL4-3 infected in human TZM-bl cells assessed as reduction in virus induced cytopathogenicity incubated for 1 day by luciferase reporter gene assay; format: functional, organism-based; settings: Human immunodeficiency virus 1, NL4-3, TZM-bl, 24 h
[3] = target: Structural capsid protein (Human immunodeficiency virus 1) (UniProt Q76129); test: Inhibition of HIV1 NL4-3 capsid protein assembly at 50 uM measured every 1 min for 19 mins
[4] = tested on: Human immunodeficiency virus 1; test: Antiviral activity against HIV1 Env-pseudotyped virus in human U87.CD4.CCR5 target cells assessed as reduction in viral infection at late stage; format: functional, organism-based; settings: Human immunodeficiency virus 1, U87/CD4/CCR5
[5] = tested on: Human immunodeficiency virus 1; test: Antiviral activity against HIV1 Env-pseudotyped virus in human U87.CD4.CCR5 target cells assessed as reduction in viral infection at early stage; format: functional, organism-based; settings: Human immunodeficiency virus 1, U87/CD4/CCR5
[6] = tested on: Human immunodeficiency virus 1; test: Antiviral activity against HIV1 3B infected in human MT4 cells assessed as reduction in virus-induced cell death incubated for 5 days by MTT assay; format: functional, organism-based; settings: Human immunodeficiency virus 1, 3B, MT4, 120 h
[7] = tested on: MT4; test: Cytotoxicity in mock-infected human MT4 assessed as reduction in cell viability incubated for 5 days by MTT assay; format: cell-based; settings: mt4, 120 h
[8] = tested on: Human immunodeficiency virus 2; test: Antiviral activity against HIV2 ROD infected in human MT4 cells assessed as reduction in virus-induced cell death incubated for 5 days by MTT assay; settings: Human immunodeficiency virus 2, ISOLATE ROD, MT4, 120 h
[9] = human, microsomes
Description: Intrinsic clearance in human liver microsomes in presence of NADPH regenerating system by LC-MS/MS analysis

[10] = human, microsomes; remark: listed apart in the source
Description: Half life in human liver microsomes in presence of NADPH regenerating system by LC-MS/MS analysis

[11] = target: T1, Structural capsid protein (Human immunodeficiency virus 1, UniProt Q76129); test: Binding affinity to HIV1 NL4-3 capsid protein hexamer by SPR analysis
[12] = target: T1, Structural capsid protein; test: Binding affinity to HIV1 NL4-3 capsid protein monomer by SPR analysis
[13] = Stability in human plasma assessed as compound remaining level at 2 uM incubated for 120 mins at 37 degC by LC-MS/MS analysis; format: ADME, cell-free; settings: 2 h
[14] = tested on: Human immunodeficiency virus 1; test: Induction of increase in CA/p24 content in HIV1 NL4-3 infected in human TZM-bl cells at 10 uM by ELISA relative to control; format: functional
[15] = target: Structural capsid protein (Human immunodeficiency virus 1) (UniProt Q76129); test: Induction of HIV1 NL4-3 capsid protein assembly at 50 uM measured every 1 min for 19 mins

T1 sequence (Q76129 whole entry): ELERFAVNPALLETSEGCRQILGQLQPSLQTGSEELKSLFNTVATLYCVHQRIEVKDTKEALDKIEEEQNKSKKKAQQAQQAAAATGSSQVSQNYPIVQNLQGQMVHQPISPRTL
Chain of Structural capsid protein (Human immunodeficiency virus 1) (Q76129 as listed by the source): as the sequence (Q76129 whole entry) above

Work on COc1ccc(N(C)C(=O)[C@H](Cc2ccccc2)NC(=O)CN2CCN(S(=O)(=O)c3cccc(F)c3)CC2=O)cc1 yielded a CC50 [1] greater than 34.3 µM and an EC50 [2] of 0.45 µM.

COc1ccc(N(C)C(=O)[C@H](Cc2ccccc2)NC(=O)CN2CCN(S(=O)(=O)c3ccc(OC)cc3)CC2=O)cc1 showed a CC50 [1] greater than 33.6 µM and an EC50 [2] of 0.64 µM.

In the case of COc1ccc(N(C)C(=O)[C@H](Cc2ccccc2)NC(=O)CNS(=O)(=O)c2cccc(F)c2)cc1, the inhibition [3] is reported as “Active”, the IC50 [4] is reported as 4.2 µM and the IC50 [5] is reported as 8.22 µM. The CC50 [1] was greater than 40 µM, the EC50 [2] was 5.61 µM and the EC50 [6] was 24.5 µM. It also gave a CC50 [7] of 136 µM and an EC50 [8] of 20.1 µM.

COc1ccc(N(C)C(=O)[C@H](Cc2ccccc2)NC(=O)CNS(=O)(=O)c2c(C)cc(C)cc2C)cc1 gave a CC50 [1] greater than 38.2 µM and an EC50 [2] of 10.7 µM.

With COc1ccc(N(C)C(=O)[C@H](Cc2ccccc2)NC(=O)CNS(=O)(=O)c2ccccc2F)cc1 the CC50 [1] was greater than 40 µM and the EC50 [2] was 10.8 µM.

With COc1ccc(N(C)C(=O)[C@H](Cc2ccccc2)NC(=O)CNS(=O)(=O)c2ccc(F)cc2)cc1 the CC50 [1] was greater than 40 µM and the EC50 [2] was 6.81 µM.

With COc1ccc(N(C)C(=O)[C@H](Cc2ccccc2)NC(=O)CN2CCN(S(=O)(=O)c3cccc([N+](=O)[O-])c3)CC2=O)cc1 the CC50 [1] was greater than 32.8 µM and the EC50 [2] was 0.67 µM.

With COc1ccc(N(C)C(=O)[C@H](Cc2ccccc2)NC(=O)CNS(=O)(=O)c2ccc(Cl)cc2)cc1 the CC50 [1] was greater than 38.8 µM and the EC50 [2] was 9.88 µM.

Molecule COc1ccc(N(C)C(=O)[C@H](Cc2ccccc2)NC(=O)CN2CCN(S(=O)(=O)c3ccc(C)cc3)CC2=O)cc1 has a CC50 [1] greater than 34.6 µM and an EC50 [2] of 0.5 µM.

With COc1ccc(N(C)C(=O)[C@H](Cc2ccccc2)NC(=O)CNS(=O)(=O)c2ccc(C)cc2)cc1 the CC50 [1] was greater than 40.4 µM and the EC50 [2] was 6.26 µM.

With COc1ccc(N(C)C(=O)[C@H](Cc2ccccc2)NC(=O)CN2CCN(S(=O)(=O)c3ccc(Br)cc3)CC2=O)cc1 the CC50 [1] was greater than 31.1 µM and the EC50 [2] was 0.36 µM.

Work on COc1ccc(N(C)C(=O)[C@H](Cc2ccccc2)NC(=O)CNS(=O)(=O)c2ccc([N+](=O)[O-])cc2)cc1 yielded a CC50 [1] greater than 38 µM and an EC50 [2] greater than 38 µM.

Molecule O=C(O)Cc1ccccc1Nc1c(Cl)cccc1Cl [DICLOFENAC] has a CLH [9] of 93.6 µL/min/mg and a t1/2 [10] of 14.8 min.

COc1ccc(N(C)C(=O)[C@H](Cc2ccccc2)NC(=O)CN2C(=O)Nc3ccc(C)cc3S2(=O)=O)cc1 showed a CC50 [1] greater than 37.3 µM and an EC50 [2] of 5.96 µM.

COc1ccc(N(C)C(=O)[C@H](Cc2ccccc2)NC(=O)CN2C(=O)N(CC(=O)N[C@@H](Cc3ccccc3)C(=O)N(C)c3ccc(OC)cc3)S(=O)(=O)c3cc(F)ccc32)cc1 gave a Kd [11] of 1.3 µM, a Kd [12] of 0.2 µM and a CC50 [1] greater than 23.1 µM. The EC50 [2] was 3.82 µM.

For COc1ccc(N(C)C(=O)[C@H](Cc2ccccc2)NC(=O)CN2CCN(S(=O)(=O)c3ccccc3N)CC2=O)cc1, the CC50 [1] was greater than 34.5 µM and the EC50 [2] was 0.54 µM.

Work on COc1ccc(N(C)C(=O)[C@H](Cc2ccccc2)NC(=O)CN2C(=O)N(CC(=O)N[C@@H](Cc3ccccc3)C(=O)N(C)c3ccc(OC)cc3)S(=O)(=O)c3cc(Br)ccc32)cc1 yielded a CC50 [1] greater than 21.6 µM and an EC50 [2] of 5.62 µM.

With COc1ccc(N(C)C(=O)[C@H](Cc2ccccc2)NC(=O)CN2CCN(S(=O)(=O)c3ccccc3)CC2=O)cc1 the CC50 [1] was greater than 35.4 µM, the EC50 [2] was 0.37 µM and the EC50 [6] was 0.71 µM. For the same molecule, the CC50 [7] was 109 µM and the EC50 [8] was 0.032 µM.

In the case of COc1ccc(N(C)C(=O)[C@H](Cc2ccccc2)NC(=O)CN2C(=O)Nc3ccc(OC)cc3S2(=O)=O)cc1, the CC50 [1] is reported as greater than 36.2 µM and the EC50 [2] is reported as 4.89 µM.

COc1ccc(N(C)C(=O)[C@H](Cc2ccccc2)NC(=O)CNS(=O)(=O)c2ccccc2)cc1 showed a CC50 [1] greater than 41.5 µM and an EC50 [2] of 6.23 µM.

Molecule COc1ccc(N(C)C(=O)[C@H](Cc2ccccc2)NC(=O)CNS(=O)(=O)c2cc(C)cc(C)c2)cc1 has a CC50 [1] greater than 39.2 µM and an EC50 [2] of 9.22 µM.

COc1ccc(N(C)C(=O)[C@H](Cc2ccccc2)NC(=O)CNS(=O)(=O)c2ccc(OC)cc2)cc1 showed a CC50 [1] greater than 39.1 µM and an EC50 [2] of 10.4 µM.

With COc1ccc(N(C)C(=O)[C@H](Cc2ccccc2)NC(=O)CNS(=O)(=O)c2c(C(C)C)cc(C(C)C)cc2C(C)C)cc1 the CC50 [1] was greater than 32.9 µM and the EC50 [2] was 7.9 µM.

COc1ccc(N(C)C(=O)[C@H](Cc2ccccc2)NC(=O)CN2C(=O)N(CC(=O)N[C@@H](Cc3ccccc3)C(=O)N(C)c3ccc(OC)cc3)S(=O)(=O)c3cc(Cl)ccc32)cc1 gave a CC50 [1] greater than 22.7 µM and an EC50 [2] of 4.77 µM.

Molecule Cc1[nH]c2ccccc2c1CC(=O)N[C@@H](Cc1ccccc1)C(=O)N(C)c1ccccc1 has a Stability [13] of 69%, an Activity [14] of 40% and an IC50 [4] of 0.23 µM. The IC50 [5] was 0.056 µM, the CC50 [1] was greater than 47 µM and the Activity [15] was “Active”. The CC50 [7] was 145 µM and the CLH [9] was 1080.3 µL/min/mg.

With COc1ccc(N(C)C(=O)[C@H](Cc2ccccc2)NC(=O)CN2C(=O)Nc3ccccc3S2(=O)=O)cc1 the inhibition [3] was “Active”, the IC50 [4] was 2.44 µM and the IC50 [5] was 1.94 µM. For the same molecule, the CC50 [1] was greater than 38.3 µM, the EC50 [2] was 2.11 µM and the EC50 [6] was 6.07 µM. The CC50 [7] was 130 µM and the EC50 [8] was 2.72 µM.

With COc1ccc(N(C)C(=O)[C@H](Cc2ccccc2)NC(=O)CN2CCN(S(=O)(=O)c3ccccc3F)CC2=O)cc1 the CC50 [1] was greater than 34.3 µM and the EC50 [2] was 0.48 µM.

For COc1ccc(N(C)C(=O)[C@H](Cc2ccccc2)NC(=O)CNS(=O)(=O)c2cccc([N+](=O)[O-])c2)cc1, the CC50 [1] was greater than 38 µM and the EC50 [2] was 8.93 µM.

Work on COc1ccc(N(C)C(=O)[C@H](Cc2ccccc2)NC(=O)CN2CCN(S(=O)(=O)c3ccc([N+](=O)[O-])cc3)CC2=O)cc1 yielded a CC50 [1] greater than 32.8 µM, an EC50 [2] of 0.3 µM and an EC50 [6] of 4.9 µM. The CC50 [7] was 8.89 µM and the EC50 [8] was 0.16 µM.

Work on COc1ccc(N(C)C(=O)[C@H](Cc2ccccc2)NC(=O)CNS(=O)(=O)c2ccc(N)cc2)cc1 yielded a CC50 [1] greater than 40.3 µM and an EC50 [2] of 6.65 µM.

Molecule COc1ccc(N(C)C(=O)[C@H](Cc2ccccc2)NC(=O)CNS(=O)(=O)c2cccc(N)c2)cc1 has a CC50 [1] greater than 40.3 µM and an EC50 [2] of 8.26 µM.

With COc1ccc(N(C)C(=O)[C@H](Cc2ccccc2)NC(=O)CN2CCN(S(=O)(=O)c3cccc(N)c3)CC2=O)cc1 the Kd [11] was 3.02 µM, the Kd [12] was 10 µM and the CC50 [1] was greater than 34.5 µM. It also gave an EC50 [2] of 0.33 µM.

COc1ccc(N(C)C(=O)[C@H](Cc2ccccc2)NC(=O)CN2CCN(S(=O)(=O)c3ccccc3[N+](=O)[O-])CC2=O)cc1 showed an EC50 [2] of 1 µM.

COc1ccc(N(C)C(=O)[C@H](Cc2ccccc2)NC(=O)CNS(=O)(=O)c2ccc(Br)cc2)cc1 gave a CC50 [1] greater than 35.7 µM and an EC50 [2] of 8.21 µM.

Molecule COc1ccc(N(C)C(=O)[C@H](Cc2ccccc2)NC(=O)CN2CCN(S(=O)(=O)c3ccc(Cl)cc3)CC2=O)cc1 has a CC50 [1] greater than 33.4 µM and an EC50 [2] of 1.05 µM.

Molecule COc1ccc(N(C)C(=O)[C@H](Cc2ccccc2)NC(=O)CN2CCN(S(=O)(=O)c3ccc(F)cc3)CC2=O)cc1 has a CC50 [1] of 25.7 µM and an EC50 [2] of 1.06 µM.

For COc1ccc(N(C)C(=O)[C@H](Cc2ccccc2)NC(=O)CNS(=O)(=O)c2ccccc2[N+](=O)[O-])cc1, the CC50 [1] was greater than 38 µM and the EC50 [2] was 8.74 µM.

Molecule COc1ccc(N(C)C(=O)[C@H](Cc2ccccc2)NC(=O)CNS(=O)(=O)c2ccccc2N)cc1 has a CC50 [1] greater than 40.3 µM and an EC50 [2] of 9.06 µM.

Source: ChEMBL document CHEMBL4342517, “Design, Synthesis, and Mechanism Study of Benzenesulfonamide-Containing Phenylalanine Derivatives as Novel HIV-1 Capsid Inhibitors with Improved Antiviral Activities” (J Med Chem, 2020)
